Measurements reported in patent publication US20260308179A1, “NOVEL CRYSTALLINE FORM OF RISDIPLAM AND PROCESS FOR PREPARATION THEREOF” (HARMAN FINOCHEM LIMITED, priority 2023, published 2026).
Converted amounts (≈) assume the structure as drawn. Like-named read-outs stand apart in the source and are kept apart here. Values belong to the molecule of their own block, whether it stands above or below them.

Legend:
[1] = Risdiplam solubility data; assay type: physicochemical
[2] = Storage stability of crystalline Form H by IR spectrum; assay type: physicochemical
Experimental: In yet another aspect, the crystalline Form H of Risdiplam is characterized by the IR spectrum at 834 cm^−1, 880 cm^−1, 926 cm^−1, 1210 cm^−1, 1227 cm^−1, 1674 cm^−1, 2824 cm^−1, 3283 cm^−1; as illustrated in FIGS. 2A and 2B. The IR spectrum of Risdiplam Form H was conducted after 6 months of storage.
In yet another embodiment, the crystalline Form H of Risdiplam is characterized by the IR spectrum at 834 cm^−1, 880 cm^−1, 926 cm^−1, 1210 cm^−1, 1227 cm^−1, 1674 cm^−1, 2824 cm^−1, 3283 cm^−1 as illustrated in FIGS. 2A and 2B. The IR spectrum of Risdiplam Form H illustrated in FIG. 2B was conducted after 6 months of storage.

Solubility in ethanol ([1]; solvent: ethanol): <1000 µg/mL | Solubility in water ([1]; solvent: water): <100 µg/mL
Compound: Cc1cn2nc(-c3cc(=O)n4cc(N5CCNC6(CC6)C5)ccc4n3)cc(C)c2n1 [STD]

stability period ([2]; illustrated by IR spectrum in FIG. 2): stable up to a period of 6 months | Solubility in ethanol ([1]; solvent: ethanol, listed as 011/DS-C/IV/118/048): 1400 µg/mL (≈ 3490 µM) | Solubility in water ([1]; solvent: water, listed as 011/DS-C/IV/118/048): 6 µg/mL (≈ 14.9 µM)
Compound: Cc1cn2nc(-c3cc(=O)n4cc(N5CCNC6(CC6)C5)ccc4n3)cc(C)c2n1 [crystalline Form H of Risdiplam, 7-(4,7-diazaspiro[2.5]octan-7-yl)-2-(2,8-dimethylimidazo[1,2-b]pyridazin-6-yl)pyrido-4H-[1,2-a]pyrimidin-4-one]
change in the IR spectrum after storage (stability) ([2]; after 6 months of storage, IR spectrum, FIG. 2A and 2B): No substantial change in the IR spectrum was observed

solubility ([1]; ethanol, organic solvent or mixture, solvent: ethanol, read-out: Solubility in ethanol): 1300 µg/mL (≈ 3240 µM) | solubility ([1]; water, solvent: water, read-out: Solubility in water): 3 µg/mL (≈ 7.47 µM)
Compound: Cc1cn2nc(-c3cc(=O)n4cc(N5CCNC6(CC6)C5)ccc4n3)cc(C)c2n1 [011/DS-C/V/118/032, 7-(4,7-Diazaspiro[2,5]octan-7-yl)-2-(2,8-dimethylimidazo[1,2-b]pyridazin-6-yl)-pyrido[1,2-a]pyrimidin-4-one]
